The source of these data is PubChem BioAssay (NCI).

Among the test systems are HOP-92 NSCLC; NCI/ADR-RES ovarian; BT-549 breast; MDA-MB-231 breast; U251 CNS; SK-MEL-5 melanoma; SK-OV-3 ovarian; A498 renal; PC-3 prostate; CAKI-1 renal.
What all share (assay): inhibition of tumour cell growth, NCI panel, 48 h

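Five concentrations, 48 hours, 96-well plates. TGI is the concentration that stops growth completely.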

Turning to `COc1cc([C@@H]2c3cc4c(cc3[C@@H](c3c(O)cc(O)c5c3O[C@H](c3ccc(O)c(O)c3)[C@@H](O)C5)[C@H]3COC(=O)[C@H]23)OCO4)cc(OC)c1OC`, the TGI in the assay with HOP-92 NSCLC is above 100 µM; in the assay on NCI/ADR-RES ovarian, above 100 µM; in the assay with BT-549 breast it was above 100 µM; with MDA-MB-231 breast, 3.28 µM; with U251 CNS it was 3.64 µM; in the assay with SK-MEL-5 melanoma, 92.7 µM. Besides, the TGI in the assay with SK-OV-3 ovarian stood at 3.36 µM; with A498 renal, 2.95 µM; in the assay with PC-3 prostate, 3.38 µM; with CAKI-1 renal, 3.57 µM.

In the case of `CCNC(=S)N=Nc1c(O)[nH]c2ccc([N+](=O)[O-])cc12`, the TGI in the assay on HOP-92 NSCLC, in the assay on NCI/ADR-RES ovarian, in the assay on BT-549 breast, in the assay on MDA-MB-231 breast, in the assay with U251 CNS and in the assay with SK-MEL-5 melanoma was above 100 µM throughout. In addition, the TGI in the assay on SK-OV-3 ovarian is above 100 µM; with A498 renal, 89.3 µM; in the assay with PC-3 prostate, above 100 µM; in the assay on CAKI-1 renal it was above 100 µM.

As for `COc1cccc(CCN2CCN(CCCc3ccccc3)CC2)c1`, the TGI in the assay on HOP-92 NSCLC is 64.4 µM; in the assay on NCI/ADR-RES ovarian, above 100 µM; in the assay with BT-549 breast it was above 100 µM; in the assay on MDA-MB-231 breast it was above 100 µM; with U251 CNS, above 100 µM; in the assay on SK-MEL-5 melanoma it was 40.6 µM. Moreover, the TGI with SK-OV-3 ovarian, in the assay with A498 renal, in the assay on PC-3 prostate and in the assay on CAKI-1 renal was above 100 µM in each case.

On to `C[N+](C)(C)c1ccc(C(N)C(=O)O)cc1` (stereo not given), for which the TGI in the assay with HOP-92 NSCLC, with NCI/ADR-RES ovarian, with BT-549 breast, in the assay with MDA-MB-231 breast, in the assay on U251 CNS and with SK-MEL-5 melanoma was above 100 µM throughout. The TGI in the assay on SK-OV-3 ovarian, with A498 renal, with PC-3 prostate and in the assay with CAKI-1 renal was above 100 µM in each case.

In the case of `CC(=O)NCCC1CN(C(=O)/C=C/I)c2ccccc21` (stereo not given), the TGI in the assay on HOP-92 NSCLC was 4.43 µM; in the assay on NCI/ADR-RES ovarian, 33.3 µM; in the assay with BT-549 breast, 10.8 µM; in the assay with MDA-MB-231 breast, 5.15 µM; with U251 CNS, 24.2 µM; in the assay with SK-MEL-5 melanoma, 20.3 µM. The TGI was found to be 27.8 µM in the assay with SK-OV-3 ovarian, 17.5 µM with A498 renal, 21.1 µM in the assay with PC-3 prostate and 9.03 µM in the assay on CAKI-1 renal.

On to `COc1ccc(N2C(=O)CC(=O)N(C(=O)COc3ccc(OCC(=O)N4C(=O)CC(=O)N(c5ccc(OC)cc5)C4=S)cc3)C2=S)cc1`, for which the TGI in the assay on HOP-92 NSCLC, in the assay with NCI/ADR-RES ovarian, in the assay with BT-549 breast, in the assay with MDA-MB-231 breast, in the assay on U251 CNS and in the assay on SK-MEL-5 melanoma was above 100 µM each time. Besides, the TGI with SK-OV-3 ovarian was above 100 µM; in the assay on A498 renal, above 100 µM; in the assay with PC-3 prostate it was above 100 µM; in the assay with CAKI-1 renal, 30.3 µM.

For `COc1ccc(C2=Nc3cc(C)c(C)cc3NC(c3ccccc3)C2)cc1` (stereo not given), the TGI in the assay with HOP-92 NSCLC, with NCI/ADR-RES ovarian, in the assay on BT-549 breast, in the assay on MDA-MB-231 breast, with U251 CNS and with SK-MEL-5 melanoma was above 100 µM throughout. Further, the TGI in the assay on SK-OV-3 ovarian, in the assay with A498 renal, in the assay with PC-3 prostate and in the assay on CAKI-1 renal was above 100 µM in each case.

`CO/N=C1\CC(NC(=O)CNC(=O)OC(C)(C)C)c2ccsc21` (stereo not given): the TGI with HOP-92 NSCLC, with NCI/ADR-RES ovarian, in the assay on BT-549 breast, with MDA-MB-231 breast, in the assay on U251 CNS and in the assay with SK-MEL-5 melanoma was above 100 µM throughout. In addition, the TGI in the assay on SK-OV-3 ovarian, in the assay with A498 renal, in the assay on PC-3 prostate and with CAKI-1 renal was above 100 µM throughout.

As for `CN(C)c1nc(N)nc(CS)n1`, the TGI with HOP-92 NSCLC, with NCI/ADR-RES ovarian, in the assay on BT-549 breast, with MDA-MB-231 breast, in the assay with U251 CNS and with SK-MEL-5 melanoma was above 100 µM each time. Further, the TGI with SK-OV-3 ovarian, in the assay on A498 renal, in the assay with PC-3 prostate and with CAKI-1 renal was above 100 µM throughout.

Turning to `Cc1ccc(OCC2OC(n3cnc4nc(N)nc(Cl)c43)CC2Oc2ccc(C)cc2)cc1` (stereo not given), the TGI is 70 µM with HOP-92 NSCLC; 47.2 µM in the assay on NCI/ADR-RES ovarian; above 100 µM with BT-549 breast; above 100 µM in the assay on MDA-MB-231 breast; above 100 µM in the assay on U251 CNS; 41.3 µM in the assay with SK-MEL-5 melanoma. Besides, the TGI in the assay on SK-OV-3 ovarian is above 100 µM; in the assay with A498 renal it was 82.3 µM; with PC-3 prostate it was 44.6 µM; with CAKI-1 renal, 23.6 µM.

For `CN(C)c1ccc(/C(F)=C(F)/C(F)=C(F)/C(F)=C(\F)c2ccc(Br)cc2)cc1`, the TGI was above 100 µM in the assay on HOP-92 NSCLC; 22.4 µM in the assay on NCI/ADR-RES ovarian; above 100 µM with BT-549 breast; above 100 µM with MDA-MB-231 breast; 44.7 µM in the assay on U251 CNS; above 100 µM in the assay with SK-MEL-5 melanoma. The TGI with SK-OV-3 ovarian was above 100 µM; in the assay on A498 renal, above 95.5 µM; in the assay with PC-3 prostate it was above 52 µM; in the assay with CAKI-1 renal it was above 84 µM.

For the molecule `COC(=O)C1CCC(=S)N1C(=O)c1ccccc1` (stereo not given), the TGI in the assay on HOP-92 NSCLC, in the assay on NCI/ADR-RES ovarian, in the assay with BT-549 breast, in the assay on MDA-MB-231 breast, in the assay with U251 CNS and in the assay on SK-MEL-5 melanoma was above 100 µM throughout. Besides, the TGI in the assay on SK-OV-3 ovarian, in the assay with A498 renal, in the assay on PC-3 prostate and in the assay with CAKI-1 renal was above 100 µM throughout.

As to `CC1C(=O)N(c2ccccc2)NC12CCCc1ccccc12` (stereo not given), the TGI with HOP-92 NSCLC, with NCI/ADR-RES ovarian, in the assay with BT-549 breast, in the assay on MDA-MB-231 breast, in the assay with U251 CNS and in the assay on SK-MEL-5 melanoma was above 100 µM in each case. Besides, the TGI with SK-OV-3 ovarian, with A498 renal, in the assay on PC-3 prostate and in the assay on CAKI-1 renal was above 100 µM in each case.
